Source: patent US12427157B2, “Methods for treatment of diseases involving acidic or hypoxic diseased tissues” (Cybrexa 1, Inc., priority 2018, dated 2025)
Residues, ends and D or L forms follow the SMILES beside them. *: point of attachment. X13 = Cc1cc(COC(=O)N(C)Cc2ccc(-c3[nH]c4cc(F)cc5c4c3CCNC5=O)cc2)cc(C)c1S*; X5 = CNCc1ccc(-c2c3c4c(cc(F)cc4n2[C@H](CC(C)C)NC(=O)OCCS*)C(=O)NCC3)cc1; X22 = C[C@]1(c2nc3c(C(N)=O)cccc3[nH]2)CCCN1C(=O)OCCS*

target: PARP (Homo sapiens, UniProt P09874); experiment: Enzymatic Assay 2: HT Universal Chemiluminescent PARP Assay of cleaved compounds; settings: read-out: IC50 Enzymatic Assay 2; Examples cleaved per Example A (crude cleavage solution); R^8H starting materials as such;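 also: PARP reaction with activated DNA run 1 h at room temperature, product detected via streptavidin-HRP and luminescence endpoint reading on a plate reader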
Sequence (P09874 whole entry): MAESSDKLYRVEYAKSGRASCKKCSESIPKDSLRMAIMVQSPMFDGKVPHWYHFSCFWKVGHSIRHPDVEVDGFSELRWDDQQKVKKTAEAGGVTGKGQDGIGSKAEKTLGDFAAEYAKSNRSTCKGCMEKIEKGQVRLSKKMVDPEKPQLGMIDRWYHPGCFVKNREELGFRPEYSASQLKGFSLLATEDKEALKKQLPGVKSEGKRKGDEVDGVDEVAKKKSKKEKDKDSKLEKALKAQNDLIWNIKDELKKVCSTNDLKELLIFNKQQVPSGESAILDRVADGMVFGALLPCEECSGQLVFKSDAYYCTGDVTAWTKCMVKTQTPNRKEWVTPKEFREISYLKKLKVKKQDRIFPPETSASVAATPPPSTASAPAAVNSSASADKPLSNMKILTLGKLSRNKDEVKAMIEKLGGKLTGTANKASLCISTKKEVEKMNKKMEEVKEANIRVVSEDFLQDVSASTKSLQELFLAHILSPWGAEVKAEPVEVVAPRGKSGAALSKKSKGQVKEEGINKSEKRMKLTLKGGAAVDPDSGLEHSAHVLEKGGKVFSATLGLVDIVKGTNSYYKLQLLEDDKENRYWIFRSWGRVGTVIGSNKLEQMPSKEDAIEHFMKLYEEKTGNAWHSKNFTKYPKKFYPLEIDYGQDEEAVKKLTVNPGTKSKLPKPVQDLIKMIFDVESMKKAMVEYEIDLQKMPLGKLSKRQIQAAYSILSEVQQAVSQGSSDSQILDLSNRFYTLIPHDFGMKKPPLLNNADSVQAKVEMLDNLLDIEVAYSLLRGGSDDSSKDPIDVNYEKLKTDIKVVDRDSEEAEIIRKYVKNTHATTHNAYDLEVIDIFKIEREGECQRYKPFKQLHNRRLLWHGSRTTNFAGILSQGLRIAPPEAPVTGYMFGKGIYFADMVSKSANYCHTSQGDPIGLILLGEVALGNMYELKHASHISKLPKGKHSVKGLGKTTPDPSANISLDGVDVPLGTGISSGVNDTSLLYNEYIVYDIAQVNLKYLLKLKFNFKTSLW

Compound	IC50
CC[C@H](C)[C@H](NC(=O)[C@@H]1CCCN1C(=O)[C@H](CC(N)=O)NC(=O)[C@H](CCC(N)=O)NC(=O)[C@H](CCC(=O)O)NC(=O)[C@H](C)N)C(=O)N[C@@H](Cc1ccc(O)cc1)C(=O)N[C@@H](Cc1c[nH]c2ccccc12)C(=O)N[C@@H](C)C(=O)N[C@@H](CCCNC(=N)N)C(=O)N[C@@H](Cc1ccc(O)cc1)C(=O)N[C@@H](C)C(=O)N[C@@H](CC(=O)O)C(=O)N[C@@H](Cc1c[nH]c2ccccc12)C(=O)N[C@@H](CC(C)C)C(=O)N[C@@H](Cc1ccccc1)C(=O)N[C@H](C(=O)N[C@H](C(=O)N1CCC[C@H]1C(=O)N[C@@H](CC(C)C)C(=O)N[C@@H](CC(C)C)C(=O)N[C@@H](CC(C)C)C(=O)N[C@@H](CC(C)C)C(=O)N[C@@H](CC(=O)O)C(=O)N[C@@H](CC(C)C)C(=O)N[C@@H](C)C(=O)N[C@@H](CC(C)C)C(=O)N[C@@H](CC(C)C)C(=O)N[C@H](C(=O)N[C@@H](CC(=O)O)C(=O)N[C@@H](C)C(=O)N[C@@H](CC(=O)O)C(=O)N[C@@H](CCC(=O)O)C(=O)N[C@@H](CSSCCOC(=O)N[C@@H](CC(C)C)n1c(-c2ccc(CNC)cc2)c2c3c(cc(F)cc31)C(=O)NCC2)C(=O)NCC(=O)O)C(C)C)[C@@H](C)O)[C@@H](C)O [Example 34] (H-AEQNPIYWARYADWLFTTPLLLLDLALLVDADEC(X5)G-OH; N-terminus and C-terminus assumed)	2.5 nM
CC(C)C[C@H](NC(=O)[C@H](Cc1ccc(O)cc1)NC(=O)[C@H](C)NC(=O)[C@H](CCCNC(=N)N)NC(=O)[C@H](Cc1c[nH]c2ccccc12)NC(=O)[C@@H]1CCCN1C(=O)[C@H](CC(N)=O)NC(=O)[C@H](CCC(N)=O)NC(=O)[C@H](CC(=O)O)NC(=O)[C@H](CC(=O)O)NC(=O)[C@H](C)N)C(=O)N[C@@H](CC(=O)O)C(=O)N[C@@H](CC(C)C)C(=O)N[C@@H](CC(C)C)C(=O)N[C@@H](Cc1ccccc1)C(=O)N1CCC[C@H]1C(=O)N[C@H](C(=O)N[C@@H](CC(=O)O)C(=O)N[C@H](C(=O)N[C@@H](CC(C)C)C(=O)N[C@@H](CC(C)C)C(=O)N[C@@H](CC(C)C)C(=O)N[C@@H](CC(=O)O)C(=O)N[C@@H](CC(C)C)C(=O)N[C@@H](CC(C)C)C(=O)N[C@@H](Cc1c[nH]c2ccccc12)C(=O)N[C@@H](CC(=O)O)C(=O)N[C@@H](C)C(=O)N[C@@H](CC(=O)O)C(=O)N[C@@H](CCC(=O)O)C(=O)N[C@@H](CSSCCOC(=O)N1CCC[C@]1(C)c1nc2c(C(N)=O)cccc2[nH]1)C(=O)NCC(=O)O)[C@@H](C)O)[C@@H](C)O [Example 11]	1.08 nM
CC[C@H](C)[C@H](NC(=O)[C@@H]1CCCN1C(=O)[C@H](CC(N)=O)NC(=O)[C@H](CCC(N)=O)NC(=O)[C@H](CCC(=O)O)NC(=O)[C@H](C)N)C(=O)N[C@@H](Cc1ccc(O)cc1)C(=O)N[C@@H](Cc1c[nH]c2ccccc12)C(=O)N[C@@H](C)C(=O)N[C@@H](CCCNC(=N)N)C(=O)N[C@@H](Cc1ccc(O)cc1)C(=O)N[C@@H](C)C(=O)N[C@@H](CC(=O)O)C(=O)N[C@@H](Cc1c[nH]c2ccccc12)C(=O)N[C@@H](CC(C)C)C(=O)N[C@@H](Cc1ccccc1)C(=O)N[C@H](C(=O)N[C@H](C(=O)N1CCC[C@H]1C(=O)N[C@@H](CC(C)C)C(=O)N[C@@H](CC(C)C)C(=O)N[C@@H](CC(C)C)C(=O)N[C@@H](CC(C)C)C(=O)N[C@@H](CC(=O)O)C(=O)N[C@@H](CC(C)C)C(=O)N[C@@H](C)C(=O)N[C@@H](CC(C)C)C(=O)N[C@@H](CC(C)C)C(=O)N[C@H](C(=O)N[C@@H](CC(=O)O)C(=O)N[C@@H](C)C(=O)N[C@@H](CC(=O)O)C(=O)N[C@@H](CCC(=O)O)C(=O)N[C@@H](CSSCCOC(=O)N1CCC[C@]1(C)c1nc2c(C(N)=O)cccc2[nH]1)C(=O)NCC(=O)O)C(C)C)[C@@H](C)O)[C@@H](C)O [Example 53] (H-AEQNPIYWARYADWLFTTPLLLLDLALLVDADEC(X22)G-OH; N-terminus and C-terminus assumed)	1 nM
CC(C)C[C@H](NC(=O)[C@H](Cc1ccc(O)cc1)NC(=O)[C@H](C)NC(=O)[C@H](CCCNC(=N)N)NC(=O)[C@H](Cc1c[nH]c2ccccc12)NC(=O)[C@@H]1CCCN1C(=O)[C@H](CC(N)=O)NC(=O)[C@H](CCC(N)=O)NC(=O)[C@H](CC(=O)O)NC(=O)[C@H](CC(=O)O)NC(=O)[C@H](C)N)C(=O)N[C@@H](CC(=O)O)C(=O)N[C@@H](CC(C)C)C(=O)N[C@@H](CC(C)C)C(=O)N[C@@H](Cc1ccccc1)C(=O)N1CCC[C@H]1C(=O)N[C@H](C(=O)N[C@@H](CC(=O)O)C(=O)N[C@H](C(=O)N[C@@H](CC(C)C)C(=O)N[C@@H](CC(C)C)C(=O)N[C@@H](CC(C)C)C(=O)N[C@@H](CC(=O)O)C(=O)N[C@@H](CC(C)C)C(=O)N[C@@H](CC(C)C)C(=O)N[C@@H](Cc1c[nH]c2ccccc12)C(=O)N[C@@H](CC(=O)O)C(=O)N[C@@H](C)C(=O)N[C@@H](CC(=O)O)C(=O)N[C@@H](CCC(=O)O)C(=O)N[C@@H](CSS[C@H](C)COC(=O)N(C)Cc1ccc(-c2[nH]c3cc(F)cc4c3c2CCNC4=O)cc1)C(=O)NCC(=O)O)[C@@H](C)O)[C@@H](C)O [Example 20]	1.7 nM
CC(C)C[C@H](NC(=O)[C@H](Cc1ccc(O)cc1)NC(=O)[C@H](C)NC(=O)[C@H](CCCNC(=N)N)NC(=O)[C@H](Cc1c[nH]c2ccccc12)NC(=O)[C@@H]1CCCN1C(=O)[C@H](CC(N)=O)NC(=O)[C@H](CCC(N)=O)NC(=O)[C@H](CC(=O)O)NC(=O)[C@H](CC(=O)O)NC(=O)[C@H](C)N)C(=O)N[C@@H](CC(=O)O)C(=O)N[C@@H](CC(C)C)C(=O)N[C@@H](CC(C)C)C(=O)N[C@@H](Cc1ccccc1)C(=O)N1CCC[C@H]1C(=O)N[C@H](C(=O)N[C@@H](CC(=O)O)C(=O)N[C@H](C(=O)N[C@@H](CC(C)C)C(=O)N[C@@H](CC(C)C)C(=O)N[C@@H](CC(C)C)C(=O)N[C@@H](CC(=O)O)C(=O)N[C@@H](CC(C)C)C(=O)N[C@@H](CC(C)C)C(=O)N[C@@H](Cc1c[nH]c2ccccc12)C(=O)N[C@@H](CC(=O)O)C(=O)N[C@@H](C)C(=O)N[C@@H](CC(=O)O)C(=O)N[C@@H](CCC(=O)O)C(=O)N[C@@H](CSSCCOC(=O)N1CCC[C@@H](c2ccc(-n3cc4cccc(C(N)=O)c4n3)cc2)C1)C(=O)NCC(=O)O)[C@@H](C)O)[C@@H](C)O [Example 10]	64.9 nM
CC(C)C[C@H](NC(=O)[C@H](Cc1ccc(O)cc1)NC(=O)[C@H](C)NC(=O)[C@H](CCCNC(=N)N)NC(=O)[C@H](Cc1c[nH]c2ccccc12)NC(=O)[C@@H]1CCCN1C(=O)[C@H](CC(N)=O)NC(=O)[C@H](CCC(N)=O)NC(=O)[C@H](CC(=O)O)NC(=O)[C@H](CC(=O)O)NC(=O)[C@H](C)N)C(=O)N[C@@H](CC(=O)O)C(=O)N[C@@H](CC(C)C)C(=O)N[C@@H](CC(C)C)C(=O)N[C@@H](Cc1ccccc1)C(=O)N1CCC[C@H]1C(=O)N[C@H](C(=O)N[C@@H](CC(=O)O)C(=O)N[C@H](C(=O)N[C@@H](CC(C)C)C(=O)N[C@@H](CC(C)C)C(=O)N[C@@H](CC(C)C)C(=O)N[C@@H](CC(=O)O)C(=O)N[C@@H](CC(C)C)C(=O)N[C@@H](CC(C)C)C(=O)N[C@@H](Cc1c[nH]c2ccccc12)C(=O)N[C@@H](CC(=O)O)C(=O)N[C@@H](C)C(=O)N[C@@H](CC(=O)O)C(=O)N[C@@H](CCC(=O)O)C(=O)N[C@@H](CSSc1ccc(COC(=O)N(C)Cc2ccc(-c3[nH]c4cc(F)cc5c4c3CCNC5=O)cc2)cc1)C(=O)NCC(=O)O)[C@@H](C)O)[C@@H](C)O [Example 37]	3.1 nM
CC[C@H](C)[C@H](NC(=O)[C@@H]1CCCN1C(=O)[C@H](CC(N)=O)NC(=O)[C@H](CCC(N)=O)NC(=O)[C@H](CCC(=O)O)NC(=O)[C@H](C)N)C(=O)N[C@@H](Cc1ccc(O)cc1)C(=O)N[C@@H](Cc1c[nH]c2ccccc12)C(=O)N[C@@H](C)C(=O)N[C@@H](CCCNC(=N)N)C(=O)N[C@@H](Cc1ccc(O)cc1)C(=O)N[C@@H](C)C(=O)N[C@@H](CC(=O)O)C(=O)N[C@@H](Cc1c[nH]c2ccccc12)C(=O)N[C@@H](CC(C)C)C(=O)N[C@@H](Cc1ccccc1)C(=O)N[C@H](C(=O)N[C@H](C(=O)N1CCC[C@H]1C(=O)N[C@@H](CC(C)C)C(=O)N[C@@H](CC(C)C)C(=O)N[C@@H](CC(C)C)C(=O)N[C@@H](CC(C)C)C(=O)N[C@@H](CC(=O)O)C(=O)N[C@@H](CC(C)C)C(=O)N[C@@H](C)C(=O)N[C@@H](CC(C)C)C(=O)N[C@@H](CC(C)C)C(=O)N[C@H](C(=O)N[C@@H](CC(=O)O)C(=O)N[C@@H](C)C(=O)N[C@@H](CC(=O)O)C(=O)N[C@@H](CCC(=O)O)C(=O)N[C@@H](CSSc1c(C)cc(COC(=O)N(C)Cc2ccc(-c3[nH]c4cc(F)cc5c4c3CCNC5=O)cc2)cc1C)C(=O)NCC(=O)O)C(C)C)[C@@H](C)O)[C@@H](C)O [Example 31] (H-AEQNPIYWARYADWLFTTPLLLLDLALLVDADEC(X13)G-OH; N-terminus and C-terminus assumed)	3.3 nM
CC(C)C[C@H](NC(=O)[C@H](Cc1ccc(O)cc1)NC(=O)[C@H](C)NC(=O)[C@H](CCCNC(=N)N)NC(=O)[C@H](Cc1c[nH]c2ccccc12)NC(=O)[C@@H]1CCCN1C(=O)[C@H](CC(N)=O)NC(=O)[C@H](CCC(N)=O)NC(=O)[C@H](CC(=O)O)NC(=O)[C@H](CC(=O)O)NC(=O)[C@H](C)N)C(=O)N[C@@H](CC(=O)O)C(=O)N[C@@H](CC(C)C)C(=O)N[C@@H](CC(C)C)C(=O)N[C@@H](Cc1ccccc1)C(=O)N1CCC[C@H]1C(=O)N[C@H](C(=O)N[C@@H](CC(=O)O)C(=O)N[C@H](C(=O)N[C@@H](CC(C)C)C(=O)N[C@@H](CC(C)C)C(=O)N[C@@H](CC(C)C)C(=O)N[C@@H](CC(=O)O)C(=O)N[C@@H](CC(C)C)C(=O)N[C@@H](CC(C)C)C(=O)N[C@@H](Cc1c[nH]c2ccccc12)C(=O)N[C@@H](CSSCCOC(=O)OCc1ccc(-c2nc3c(C(N)=O)cccc3[nH]2)cc1)C(=O)NCC(=O)O)[C@@H](C)O)[C@@H](C)O [Example 1]	12.1 nM
